Experimental findings from article PMC11930087, “Mobility of four structural regions drives isoform-specific properties of photoenzyme LPOR in plants” (The Journal of Biological Chemistry, 2025) are described below.

Bounds are passed on as bounds.

For test [1], the target named is T1, AtPORB (Arabidopsis thaliana, UniProt P21218).
T1 construct: gene PORB
T1 sequence (P21218 67-401): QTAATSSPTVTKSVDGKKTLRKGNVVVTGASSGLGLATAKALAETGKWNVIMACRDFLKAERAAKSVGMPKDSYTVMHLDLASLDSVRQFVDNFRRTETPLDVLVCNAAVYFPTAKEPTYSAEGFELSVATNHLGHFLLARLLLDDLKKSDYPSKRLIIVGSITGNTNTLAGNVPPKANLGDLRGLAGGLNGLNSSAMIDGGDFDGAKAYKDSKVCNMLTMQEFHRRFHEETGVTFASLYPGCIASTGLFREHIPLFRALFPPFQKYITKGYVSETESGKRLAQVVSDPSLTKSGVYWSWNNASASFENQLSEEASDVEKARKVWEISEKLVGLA
To be noted: 400 uM OPT lipids; substrate; read-out: illuminated, 400 uM OPT, KM^L. An excerpt:
(§1) All samples were thawed in darkness, illuminated for 20 s to initiate the reaction, and then frozen again and remeasured. […] These plots also resembled saturation curves, to which a hyperbolic function similar to the modified Michaelis–Menten equation could be fitted (Figs. 3C, S5, Materials and Methods).

The target in test [2] is T2, AtPORA (Arabidopsis thaliana, UniProt Q42536).
T2 construct: gene PORA
T2 sequence (Q42536 70-405): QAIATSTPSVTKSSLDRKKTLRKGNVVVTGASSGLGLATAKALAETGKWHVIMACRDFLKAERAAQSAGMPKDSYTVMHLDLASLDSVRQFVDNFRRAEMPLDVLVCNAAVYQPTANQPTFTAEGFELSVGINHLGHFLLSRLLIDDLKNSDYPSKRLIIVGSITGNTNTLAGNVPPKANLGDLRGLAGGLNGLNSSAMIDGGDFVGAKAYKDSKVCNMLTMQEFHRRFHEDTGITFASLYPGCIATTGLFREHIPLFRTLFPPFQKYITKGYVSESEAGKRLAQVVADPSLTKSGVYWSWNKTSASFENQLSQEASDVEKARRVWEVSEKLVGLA
The following applies: 400 uM OPT lipids; substrate; read-out: illuminated, 400 uM OPT, KM^L.
Description: as §1

In test [3] the target is T3, AtPORC (Arabidopsis thaliana, UniProt O48741).
T3 construct: gene PORC
T3 sequence (O48741 68-401): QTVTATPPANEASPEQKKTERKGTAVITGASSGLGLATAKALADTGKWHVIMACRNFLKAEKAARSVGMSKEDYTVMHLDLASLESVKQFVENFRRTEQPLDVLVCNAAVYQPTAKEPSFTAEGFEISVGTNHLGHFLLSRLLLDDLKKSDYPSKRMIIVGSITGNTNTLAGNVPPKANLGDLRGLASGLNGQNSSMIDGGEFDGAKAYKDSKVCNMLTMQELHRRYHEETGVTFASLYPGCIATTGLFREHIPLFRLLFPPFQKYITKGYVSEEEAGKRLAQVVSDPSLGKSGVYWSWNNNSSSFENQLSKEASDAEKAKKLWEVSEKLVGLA
The following applies: 400 uM OPT lipids; substrate; read-out: illuminated, 400 uM OPT, KM^L.
Description: as §1

Test [4] addresses T4, TaPOR2 (Triticum aestivum, UniProt A0A3B5XZQ9).
T4 construct: gene LOC123047424
T4 sequence (A0A3B5XZQ9 60-395): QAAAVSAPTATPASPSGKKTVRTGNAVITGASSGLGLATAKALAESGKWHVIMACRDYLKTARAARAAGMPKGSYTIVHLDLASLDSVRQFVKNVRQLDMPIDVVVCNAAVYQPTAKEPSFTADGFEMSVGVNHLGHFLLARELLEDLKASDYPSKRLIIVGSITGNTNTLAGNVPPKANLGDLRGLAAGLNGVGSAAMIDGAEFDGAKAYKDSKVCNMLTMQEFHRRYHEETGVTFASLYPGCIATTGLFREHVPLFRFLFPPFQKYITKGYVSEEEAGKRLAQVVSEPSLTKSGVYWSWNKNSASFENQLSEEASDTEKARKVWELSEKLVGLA
To be noted: 400 uM OPT lipids; substrate; read-out: illuminated, 400 uM OPT, KM^L.
Description: as §1

The target of test [5] is T5, TaPOR1 (Triticum aestivum, UniProt Q41578).
T5 construct: gene PORA
T5 sequence (Q41578 75-388): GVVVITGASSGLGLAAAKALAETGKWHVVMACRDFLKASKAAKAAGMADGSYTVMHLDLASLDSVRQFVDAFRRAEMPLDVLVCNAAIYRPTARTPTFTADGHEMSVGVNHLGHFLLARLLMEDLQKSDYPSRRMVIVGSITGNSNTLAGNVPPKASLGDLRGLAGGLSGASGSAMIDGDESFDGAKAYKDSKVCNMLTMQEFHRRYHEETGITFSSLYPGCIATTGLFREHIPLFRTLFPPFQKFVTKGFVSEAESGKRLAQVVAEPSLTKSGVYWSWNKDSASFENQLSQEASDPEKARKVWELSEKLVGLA
To be noted: 400 uM OPT lipids; substrate; read-out: illuminated, 400 uM OPT, KM^L.
Description: as §1

Test [6] has as its target T6, PinPOR (Pinus mugo, UniProt Q41202).
T6 construct: transit peptide removed; pET15b
T6 sequence (Q41202 67-400): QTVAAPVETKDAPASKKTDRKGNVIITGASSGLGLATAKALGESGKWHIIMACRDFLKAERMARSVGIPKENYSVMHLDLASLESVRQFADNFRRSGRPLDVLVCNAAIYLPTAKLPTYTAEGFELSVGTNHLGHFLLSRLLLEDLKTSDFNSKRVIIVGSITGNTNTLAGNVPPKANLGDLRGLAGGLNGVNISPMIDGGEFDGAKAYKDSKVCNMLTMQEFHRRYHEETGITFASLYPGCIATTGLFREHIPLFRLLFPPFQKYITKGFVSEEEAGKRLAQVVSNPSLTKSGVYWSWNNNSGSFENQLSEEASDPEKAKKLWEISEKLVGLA
Description: […] K Pchlide fluorescence in darkness, F648/F635 ratio vs NADPH, hyperbolic fit. The class given is binding. To be noted: lipid-free; 5 μM Pchlide, 15 μM LPOR, pH 7.1, room-temperature dark incubation; apparent parameter, exact value in supplement; read-out: KM^D.

Test [7] has as its target T7, SlPOR3 (Solanum lycopersicum, UniProt A0A3Q7J565).
T7 construct: gene LOC101248079; transit peptide removed; pET15b
T7 sequence (A0A3Q7J565 63-397): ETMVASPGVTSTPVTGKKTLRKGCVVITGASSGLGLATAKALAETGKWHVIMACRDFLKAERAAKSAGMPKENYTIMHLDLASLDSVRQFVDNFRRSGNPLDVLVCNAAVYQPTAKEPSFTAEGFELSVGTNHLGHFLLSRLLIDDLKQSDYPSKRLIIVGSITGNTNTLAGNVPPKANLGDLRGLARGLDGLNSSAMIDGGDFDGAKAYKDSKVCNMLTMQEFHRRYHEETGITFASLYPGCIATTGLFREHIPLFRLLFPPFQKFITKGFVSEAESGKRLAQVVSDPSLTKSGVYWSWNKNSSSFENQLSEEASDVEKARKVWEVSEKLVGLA
Described as above. The class given is binding. The following applies: lipid-free; 5 μM Pchlide, 15 μM LPOR, pH 7.1, room-temperature dark incubation; apparent parameter, exact value in supplement; read-out: KM^D.

The target of test [8] is T1, AtPORB. The test is described as above. The following applies: lipid-free; 5 μM Pchlide, 15 μM LPOR, pH 7.1, room-temperature dark incubation; apparent parameter, exact value in supplement; read-out: KM^D. It counts as binding.

The term Km denotes the concentration of substrate that gives half-maximal velocity. Regarding `NC(=O)C1=CN([C@@H]2O[C@H](COP(=O)(O)OP(=O)(O)OC[C@H]3O[C@@H](n4cnc5c(N)ncnc54)[C@H](OP(=O)(O)O)[C@@H]3O)[C@@H](O)[C@H]2O)C=CC1` [NADPH], the Km was 1.3 µM in test [1]; 2.5 µM in test [2]; 0.7 µM in test [3]; 6.1 µM in test [4]; 39.7 µM in test [5]. For the same compound, the Kd in test [6] was less than 10 µM; in test [7], less than 10 µM; in test [8] it was more than 100 µM.
